{
  "source": "patent US20240425470A1",
  "about": "“S[…] AMINE MODULATORS OF MONOAMINERGIC TRANSPORTERS” (ATAI Life Sciences AG, priority 2023, published 2024)",
  "format_in_all_cases": "cell-based",
  "key": {"[1]": {"target": "Norepinephrine transporter (NET) (Homo sapiens (Human), UniProt P23975)", "test": "Norepinephrine transporter (NET) uptake inhibition, [3H]-Norepinephrine uptake in HEK cells", "conditions": "HEK cells expressing recombinant NET; [3H]-Norepinephrine 20 nM", "method": "(§1) Norepinephrine transporter (NET) Uptake Inhibition: Compound activity was assessed using a convenient in vitro assay. Briefly, HEK cells expressing recombinant NET were plated at 50,000 cells/well on a 96 well plate pre-coated with Matrigel one day prior to the experiment. Culture medium (DMEM/FBS) was removed and 30 μl of assay buffer (Tris-HCl 50 mM, EDTA 4 mM, BDA 0.1%) with the desired concentration of test compound was added. The plate was incubated at 37° C. for 15 minutes. Assay buffer (30 μl) containing the same concentration of compound diluted in [3H]-Norepinephrine uptake buffer (final concentration 20 nM) was added to each well and the plate was incubated at 37° C. for 5 minutes. The reaction mixture was removed, and the cells were washed with 100 μl ice-cold assay buffer twice. Lysis buffer (50 μl) was added to the cells followed by a 5 minute incubation with gentle shaking at room temperature. The lysate was transferred to a 96 well isoplate. Optiphase supermix (100 μl) was added to each well with complete mixing. Radioactivity was counted with Microbeta Counter and reported as CPM. Desipramine was used as a control to measure non-specific uptake and for data normalization. Percent inhibition of [3H]-Norepinephrine uptake calculations: 100×(1−(CPMtest sample−CPMnon-specific uptake)/(CPMMAX−CPMMIN))."}, "[2]": {"target": "Serotonin transporter (SERT) (Homo sapiens (Human), UniProt P31645)", "test": "Serotonin transporter (SERT) uptake inhibition, [3H]-Serotonin uptake in HEK cells", "conditions": "HEK cells expressing recombinant SERT, [3H]-Serotonin 10 nM; for inhibition at 10 µM / inhibition at 100 µM: HEK293; for inhibition at 10 µM: 10 μM test compound; for inhibition at 100 µM: 100 μM test compound", "method": "Serotonin transporter (SERT) Uptake Inhibition: Compound activity was assessed using an in vitro assay. Briefly, HEK cells expressing recombinant SERT were plated at 50,000 cells/well on a 96 well plate pre-coated with Matrigel one day prior to the experiment. Culture medium (DMEM/FBS) was removed from each well, and 30 μl of assay buffer (Tris-HCl 50 mM, EDTA 4 mM, BDA 0.1%) with the desired concentration of test compound was added. The plate was incubated at 37° C. for 15 minutes. Assay buffer (30 μl) containing the same concentration of compound diluted in [3H]-Serotonin uptake buffer (final concentration 10 nM) was added to each well and the plate was incubated at 37° C. for 5 minutes. The reaction mixture was removed, and the cells were washed (2×) with 100 μl ice-cold assay buffer. Lysis buffer (50 μl) was added to the cells followed by a 5 minute incubation with gentle shaking at room temperature. The lysate was transferred to a 96 well isoplate. Optiphase supermix (100 μl) was added to each well and was thoroughly mixed. Radioactivity was counted with Microbeta Counter and reported as counts per minute (CPM). Fluoxetine was used as a control to measure non-specific uptake and for data normalization. Percent inhibition of [3H]-Serotonin uptake is based on the calculation: 100×(1−(CPMtest sample−CPMnon-specific uptake)/(CPMMAX−CPMMIN))."}, "[3]": {"target": "Dopamine transporter (DAT) (Homo sapiens (Human), UniProt Q01959)", "test": "Dopamine transporter (DAT) uptake inhibition, [3H]-dopamine uptake in HEK cells", "conditions": "HEK cells expressing recombinant DAT; [3H]-dopamine 20 nM", "method": "as §1, with “Dopamine transporter (DAT)” for “Norepinephrine transporter (NET)”, “Dopamine transporter (DAT) Uptake Inhibition:” for “Norepinephrine transporter (NET) Uptake Inhibition:”, “expressing recombinant DAT were plated” for “expressing recombinant NET were plated”, “diluted in [3H]-Dihydroxyphenylethylamine (dopamine) uptake buffer” for “diluted in [3H]-Norepinephrine uptake buffer”, “as CPM. Nomifensine was used” for “as CPM. Desipramine was used”, “inhibition of [3H]-Dopamine uptake calculations:” for “inhibition of [3H]-Norepinephrine uptake calculations:”"}},
  "data": [
    {"smiles": "CNC(C)Cc1ccc2c(c1)OCO2", "note": "(stereo not drawn) [MDMA, 3,4-Methylenedioxymethamphetamine, reference compound]", "values": [
      {"measurement": "IC50", "setting": "[1]", "result": 1.42, "unit": "µM"},
      {"measurement": "inhibition at 10 µM", "setting": "[2]", "result": 53.3, "unit": "%"},
      {"measurement": "inhibition at 100 µM", "setting": "[2]", "result": 98, "unit": "%"},
      {"measurement": "IC50", "setting": "[2]", "result": 3.35, "unit": "µM"},
      {"measurement": "IC50", "setting": "[3]", "result": 5.25, "unit": "µM"}
    ]},
    {"smiles": "CC(N)Cc1ccc2occ(F)c2c1", "note": "(stereo not drawn) [Compound 1, 1-(3-fluorobenzofuran-5-yl)propan-2-amine]", "values": [
      {"measurement": "IC50", "setting": "[1]", "result": 4.73, "unit": "µM"},
      {"measurement": "inhibition at 10 µM", "setting": "[2]", "result": 72.7, "unit": "%"},
      {"measurement": "inhibition at 100 µM", "setting": "[2]", "result": 97.9, "unit": "%"},
      {"measurement": "IC50", "setting": "[2]", "result": 6.75, "unit": "µM"},
      {"measurement": "IC50", "setting": "[3]", "result": 15.6, "unit": "µM"}
    ]},
    {"smiles": "CNC(C)Cc1ccc2occ(F)c2c1", "note": "(stereo not drawn) [Compound 2, 1-(3-fluorobenzofuran-5-yl)-N-methylpropan-2-amine]", "values": [
      {"measurement": "IC50", "setting": "[1]", "result": 5.02, "unit": "µM"},
      {"measurement": "inhibition at 10 µM", "setting": "[2]", "result": 64.7, "unit": "%"},
      {"measurement": "inhibition at 100 µM", "setting": "[2]", "result": 99, "unit": "%"},
      {"measurement": "IC50", "setting": "[2]", "result": 5.72, "unit": "µM"},
      {"measurement": "IC50", "setting": "[3]", "result": 9.59, "unit": "µM"}
    ]}
  ]
}
